Literature values in patent US20080003280A1, “Combination cough treatment compounds and method of treating common coughs” (priority 2006, published 2008).

Experiments:
[1] = test system: cough induced with a capsaicin challenge
cough [2] = test system: cough
cough [3] = settings: patients with an upper respiratory tract infection; in combination with a decongestant

Cn1cnc2c1c(=O)[nH]c(=O)n2C [Theobromine, 3,7-dihydro-3,7-dimethyl-1H-purine-2,6-dione]
mucociliary clearance ([1]; discovered in the same study): stimulates mucociliary clearance | toxicity ([1]; discovered in the same study): low toxicity | antitussive effect ([1]; patients, capsaicin challenge, in comparison to codeine and caffeine, FIG. 2): strong and long lasting antitussive effect, comparable, in fact to codeine

COc1ccc2c(c1)[C@]13CCCC[C@@H]1[C@H](C2)N(C)CC3 [dextromethorphan]
cough suppression (cough [2]; 60 mg/dose in adults): Significant cough suppression | antitussive effect (cough [2]; adults, dose 15-30 mg (30 mg in FIG. 4), versus placebo): no greater than placebo

CN(C)CCC(c1ccc(Br)cc1)c1ccccn1 (stereo not drawn) [brompheniramine]
effect on cough (cough [3]): improvement in cough
